In ChEMBL document CHEMBL4339185 (Eur J Med Chem, 2019):
Converted amounts (≈) assume the structure as drawn.

Key:
Staphylococcus aureus [1] = assay: Potency index, ratio of rifampicin MIC to compound MIC for Staphylococcus aureus ATCC 6538; format: functional
[2] = Solubility of the compound in water at pH 7 by UV-vis spectrophotometric analysis; format: physicochemical
[3] = system: Staphylococcus epidermidis; assay: Potency index, ratio of rifaximin MIC to compound MIC for Staphylococcus epidermidis ATCC 49134; format: functional
[4] = system: Staphylococcus epidermidis; assay: Potency index, ratio of rifampicin MIC to compound MIC for Staphylococcus epidermidis ATCC 12228; format: functional
Enterococcus faecalis [5] = assay: Antimicrobial activity against Enterococcus faecalis ATCC 29212 incubated for 18 hrs by serial microdilution method; format: functional; conditions: ATCC 29212, 18 h
Enterococcus faecalis [6] = assay: Potency index, ratio of rifaximin MIC to compound MIC for Enterococcus faecalis ATCC 29212; format: functional
[7] = system: Staphylococcus epidermidis; assay: Antimicrobial activity against Staphylococcus epidermidis ATCC 49134 incubated for 18 hrs by serial microdilution method; format: functional; conditions: ATCC 49134, 18 h
[8] = system: Staphylococcus epidermidis; assay: Antimicrobial activity against Staphylococcus epidermidis ATCC 12228 incubated for 18 hrs by serial microdilution method; format: functional; conditions: ATCC 12228, 18 h
Staphylococcus aureus [9] = assay: Antimicrobial activity against methicillin-resistant Staphylococcus aureus incubated for 18 hrs by serial microdilution method; format: functional
Staphylococcus aureus [10] = assay: Antimicrobial activity against MLSB-resistant Staphylococcus aureus incubated for 18 hrs by serial microdilution method; format: functional
[11] = system: Staphylococcus epidermidis; assay: Potency index, ratio of rifampicin MIC to compound MIC for Staphylococcus epidermidis ATCC 49134; format: functional
Staphylococcus aureus [12] = assay: Antimicrobial activity against Staphylococcus aureus ATCC 6538 incubated for 18 hrs by serial microdilution method; format: functional; conditions: ATCC 6538, 18 h
[13] = system: Staphylococcus epidermidis; assay: Potency index, ratio of rifaximin MIC to compound MIC for Staphylococcus epidermidis 12228; format: functional
Staphylococcus aureus [14] = assay: Potency index, ratio of rifaximin MIC to compound MIC for Staphylococcus aureus ATCC 6538; format: functional
[15] = Lipophilicity, log P of the compound in octanol and water incubated for 1 h under shaking condition; format: physicochemical
Enterococcus faecalis [16] = assay: Potency index, ratio of rifampicin MIC to compound MIC for Enterococcus faecalis ATCC 29212; format: functional
Escherichia coli = assay: Antimicrobial activity against Escherichia coli ATCC 25922 incubated for 18 hrs by serial microdilution method; format: functional; conditions: ATCC 25922, 18 h

Row | Structure (SMILES) | Ratio (Staphylococcus aureus [1]) | solubility [2] | Ratio [3] | Ratio [4] | MIC (Enterococcus faecalis [5]) | Ratio (Enterococcus faecalis [6]) | MIC [7] | MIC [8] | MIC (Staphylococcus aureus [9]) | MIC (Staphylococcus aureus [10]) | Ratio [11] | MIC (Staphylococcus aureus [12]) | Ratio [13] | Ratio (Staphylococcus aureus [14]) | logP at 1 h [15] | Ratio (Enterococcus faecalis [16]) | MIC (Escherichia coli)
1 | CO[C@H]1/C=C/O[C@@]2(C)Oc3c(C)c(O)c4c(O)c(c(/C=N/NC5=NCCN5)c(O)c4c3C2=O)NC(=O)/C(C)=C\C=C\[C@H](C)[C@H](O)[C@@H](C)[C@@H](O)[C@@H](C)[C@H](OC(C)=O)[C@@H]1C | 8 | 4250 µg/mL (≈ 5260 µM) | 8 | 8 | 1 µg/mL (≈ 1.24 µM) | 8 | 0.0078 µg/mL (≈ 0.00965 µM) | 0.0078 µg/mL (≈ 0.00965 µM) | 0.0156 µg/mL (≈ 0.0193 µM) | 0.0078 µg/mL (≈ 0.00965 µM) | 8 | 0.0078 µg/mL (≈ 0.00965 µM) | 8 | 8 | 1.33 | 8 | > 8 µg/mL
2 | CO[C@H]1/C=C/O[C@@]2(C)Oc3c(C)c(O)c4c(O)c(c(CN5CCN(c6ccccn6)CC5)c(O)c4c3C2=O)NC(=O)/C(C)=C\C=C\[C@H](C)[C@H](O)[C@@H](C)[C@@H](O)[C@@H](C)[C@H](OC(C)=O)[C@@H]1C | – | < 50 µg/mL | – | – | > 8 µg/mL | – | 0.25 µg/mL (≈ 0.286 µM) | 0.25 µg/mL (≈ 0.286 µM) | 1 µg/mL (≈ 1.15 µM) | 0.5 µg/mL (≈ 0.573 µM) | – | 2 µg/mL (≈ 2.29 µM) | – | – | 1.99 | – | > 8 µg/mL
3 | CO[C@H]1/C=C/O[C@@]2(C)Oc3c(C)c(O)c4c(O)c(c(CN5CCN(c6ncccc6C(F)(F)F)CC5)c(O)c4c3C2=O)NC(=O)/C(C)=C\C=C\[C@H](C)[C@H](O)[C@@H](C)[C@@H](O)[C@@H](C)[C@H](OC(C)=O)[C@@H]1C | – | < 50 µg/mL | – | – | > 8 µg/mL | – | 0.5 µg/mL (≈ 0.531 µM) | 0.5 µg/mL (≈ 0.531 µM) | 4 µg/mL (≈ 4.25 µM) | 2 µg/mL (≈ 2.13 µM) | – | 2 µg/mL (≈ 2.13 µM) | – | – | 2.09 | – | > 8 µg/mL
4 | CO[C@H]1/C=C/O[C@@]2(C)Oc3c(C)c(O)c4c(O)c(c(/C=N/N5CCOCC5)c(O)c4c3C2=O)NC(=O)/C(C)=C\C=C\[C@H](C)[C@H](O)[C@@H](C)[C@@H](O)[C@@H](C)[C@H](OC(C)=O)[C@@H]1C | – | < 50 µg/mL | – | – | > 8 µg/mL | – | 0.25 µg/mL (≈ 0.309 µM) | 0.25 µg/mL (≈ 0.309 µM) | 0.5 µg/mL (≈ 0.617 µM) | 1 µg/mL (≈ 1.23 µM) | – | 1 µg/mL (≈ 1.23 µM) | – | – | 2.79 | – | > 8 µg/mL
5 | CO[C@H]1/C=C/O[C@@]2(C)Oc3c(C)c(O)c4c(O)c(c(CN5CCN(Cc6ccc(F)cc6)CC5)c(O)c4c3C2=O)NC(=O)/C(C)=C\C=C\[C@H](C)[C@H](O)[C@@H](C)[C@@H](O)[C@@H](C)[C@H](OC(C)=O)[C@@H]1C | – | < 50 µg/mL | – | – | 8 µg/mL (≈ 8.85 µM) | – | 0.25 µg/mL (≈ 0.277 µM) | 0.25 µg/mL (≈ 0.277 µM) | 1 µg/mL (≈ 1.11 µM) | 0.25 µg/mL (≈ 0.277 µM) | – | 1 µg/mL (≈ 1.11 µM) | – | – | 3.31 | – | > 8 µg/mL
6 | CO[C@H]1/C=C/O[C@@]2(C)Oc3c(C)c(O)c4c(O)c(c(CN5CCN(c6ncccn6)CC5)c(O)c4c3C2=O)NC(=O)/C(C)=C\C=C\[C@H](C)[C@H](O)[C@@H](C)[C@@H](O)[C@@H](C)[C@H](OC(C)=O)[C@@H]1C | – | 50 µg/mL (≈ 57.2 µM) | – | – | > 8 µg/mL | – | 0.25 µg/mL (≈ 0.286 µM) | 0.25 µg/mL (≈ 0.286 µM) | 1 µg/mL (≈ 1.14 µM) | 2 µg/mL (≈ 2.29 µM) | – | 1 µg/mL (≈ 1.14 µM) | – | – | 2.02 | – | > 8 µg/mL
7 | CO[C@H]1/C=C/O[C@@]2(C)Oc3c(C)c(O)c4c(O)c(c(CNC56CC7CC(CC(C7)C5)C6)c(O)c4c3C2=O)NC(=O)/C(C)=C\C=C\[C@H](C)[C@H](O)[C@@H](C)[C@@H](O)[C@@H](C)[C@H](OC(C)=O)[C@@H]1C | – | < 50 µg/mL | – | – | 1 µg/mL (≈ 1.16 µM) | – | 2 µg/mL (≈ 2.32 µM) | 4 µg/mL (≈ 4.65 µM) | 0.5 µg/mL (≈ 0.581 µM) | 0.5 µg/mL (≈ 0.581 µM) | – | 0.5 µg/mL (≈ 0.581 µM) | – | – | 1.91 | – | > 8 µg/mL
8 | CO[C@H]1/C=C/O[C@@]2(C)Oc3c(C)c(O)c4c(O)c(c(CN5CCC(NS(C)(=O)=O)CC5)c(O)c4c3C2=O)NC(=O)/C(C)=C\C=C\[C@H](C)[C@H](O)[C@@H](C)[C@@H](O)[C@@H](C)[C@H](OC(C)=O)[C@@H]1C | – | 36400 µg/mL (≈ 41000 µM) | – | – | > 8 µg/mL | – | 0.5 µg/mL (≈ 0.563 µM) | 0.5 µg/mL (≈ 0.563 µM) | 2 µg/mL (≈ 2.25 µM) | 2 µg/mL (≈ 2.25 µM) | – | 4 µg/mL (≈ 4.5 µM) | – | – | 0.31 | – | > 8 µg/mL
9 | CO[C@H]1/C=C/O[C@@]2(C)Oc3c(C)c(O)c4c(O)c(c(CNC5CCN(CC6CCCCC6)CC5)c(O)c4c3C2=O)NC(=O)/C(C)=C\C=C\[C@H](C)[C@H](O)[C@@H](C)[C@@H](O)[C@@H](C)[C@H](OC(C)=O)[C@@H]1C | – | < 50 µg/mL | – | – | 4 µg/mL (≈ 4.41 µM) | – | 0.125 µg/mL (≈ 0.138 µM) | 0.125 µg/mL (≈ 0.138 µM) | 0.25 µg/mL (≈ 0.276 µM) | 0.125 µg/mL (≈ 0.138 µM) | – | 0.25 µg/mL (≈ 0.276 µM) | – | – | 3.31 | – | > 8 µg/mL
10 | CO[C@H]1/C=C/O[C@@]2(C)Oc3c(C)c(O)c4c(O)c(c(CN5CCC(N6CCC(C(=O)O)CC6)CC5)c(O)c4c3C2=O)NC(=O)/C(C)=C\C=C\[C@H](C)[C@H](O)[C@@H](C)[C@@H](O)[C@@H](C)[C@H](OC(C)=O)[C@@H]1C | 8 | 70000 µg/mL (≈ 75900 µM) | 8 | 8 | 1 µg/mL (≈ 1.08 µM) | 8 | 0.0078 µg/mL (≈ 0.00846 µM) | 0.0078 µg/mL (≈ 0.00846 µM) | 0.0078 µg/mL (≈ 0.00846 µM) | 0.0078 µg/mL (≈ 0.00846 µM) | 8 | 0.0078 µg/mL (≈ 0.00846 µM) | 8 | 8 | -1.34 | 8 | > 8 µg/mL
11 | CO[C@H]1/C=C/O[C@@]2(C)Oc3c(C)c(O)c4c(O)c(c(CN5CCN(C)C6(CCN(C)CC6)C5)c(O)c4c3C2=O)NC(=O)/C(C)=C\C=C\[C@H](C)[C@H](O)[C@@H](C)[C@@H](O)[C@@H](C)[C@H](OC(C)=O)[C@@H]1C | – | 1830 µg/mL (≈ 2050 µM) | – | – | 2 µg/mL (≈ 2.24 µM) | – | 0.0625 µg/mL (≈ 0.07 µM) | 0.0625 µg/mL (≈ 0.07 µM) | 0.125 µg/mL (≈ 0.14 µM) | 0.125 µg/mL (≈ 0.14 µM) | – | 0.25 µg/mL (≈ 0.28 µM) | – | – | 0.72 | – | > 8 µg/mL
12 | CO[C@H]1/C=C/O[C@@]2(C)Oc3c(C)c(O)c4c(O)c(c(CN5CCN(C)CC5)c(O)c4c3C2=O)NC(=O)/C(C)=C\C=C\[C@H](C)[C@H](O)[C@@H](C)[C@@H](O)[C@@H](C)[C@H](OC(C)=O)[C@@H]1C | – | 100 µg/mL (≈ 123 µM) | – | – | > 8 µg/mL | – | 0.25 µg/mL (≈ 0.309 µM) | 0.25 µg/mL (≈ 0.309 µM) | 0.5 µg/mL (≈ 0.617 µM) | 1 µg/mL (≈ 1.23 µM) | – | 0.5 µg/mL (≈ 0.617 µM) | – | – | 1.76 | – | > 8 µg/mL
13 | CO[C@H]1/C=C/O[C@@]2(C)Oc3c(C)c(O)c4c(O)c(c(CN5CCN(Cc6c(C)cc(C)cc6C)CC5)c(O)c4c3C2=O)NC(=O)/C(C)=C\C=C\[C@H](C)[C@H](O)[C@@H](C)[C@@H](O)[C@@H](C)[C@H](OC(C)=O)[C@@H]1C | – | < 300 µg/mL | – | – | > 8 µg/mL | – | 1 µg/mL (≈ 1.08 µM) | 0.5 µg/mL (≈ 0.539 µM) | 2 µg/mL (≈ 2.15 µM) | 2 µg/mL (≈ 2.15 µM) | – | 4 µg/mL (≈ 4.31 µM) | – | – | 1.82 | – | > 8 µg/mL
14 | CO[C@H]1/C=C/O[C@@]2(C)Oc3c(C)c(O)c4c(O)c(c(CN5CCN(c6ccncc6)CC5)c(O)c4c3C2=O)NC(=O)/C(C)=C\C=C\[C@H](C)[C@H](O)[C@@H](C)[C@@H](O)[C@@H](C)[C@H](OC(C)=O)[C@@H]1C | – | < 50 µg/mL | – | – | > 8 µg/mL | – | 0.5 µg/mL (≈ 0.573 µM) | 0.5 µg/mL (≈ 0.573 µM) | 2 µg/mL (≈ 2.29 µM) | 2 µg/mL (≈ 2.29 µM) | – | 2 µg/mL (≈ 2.29 µM) | – | – | 2.06 | – | > 8 µg/mL
15 | CO[C@H]1/C=C/O[C@@]2(C)Oc3c(C)c(O)c4c(O)c(c(CNC5CCCNC5=O)c(O)c4c3C2=O)NC(=O)/C(C)=C\C=C\[C@H](C)[C@H](O)[C@@H](C)[C@@H](O)[C@@H](C)[C@H](OC(C)=O)[C@@H]1C (stereo partly specified) | – | 210 µg/mL (≈ 255 µM) | – | – | > 8 µg/mL | – | 0.25 µg/mL (≈ 0.303 µM) | 0.25 µg/mL (≈ 0.303 µM) | 0.25 µg/mL (≈ 0.303 µM) | 0.5 µg/mL (≈ 0.607 µM) | – | 0.5 µg/mL (≈ 0.607 µM) | – | – | 1.14 | – | > 8 µg/mL
